In ChEMBL document CHEMBL1287701, “Substituted N-{3-[(1,1-dioxido-1,2-benzothiazol-3-yl)(phenyl)amino]propyl}benzamide analogs as potent Kv1.3 ion channel blockers. Part 2” (Bioorg Med Chem Lett, 2010):
In brackets after ≈: the same amount, converted by molar mass.

Molecular target: Potassium voltage-gated channel subfamily A member 5 (Homo sapiens, UniProt P22460)
Assay: Inhibition of human Kv1.5 ion channel expressed in CHO K1 cells
Type: cell-based
Conditions: not given

Chain of Potassium voltage-gated channel subfamily A member 5 (P22460 whole entry): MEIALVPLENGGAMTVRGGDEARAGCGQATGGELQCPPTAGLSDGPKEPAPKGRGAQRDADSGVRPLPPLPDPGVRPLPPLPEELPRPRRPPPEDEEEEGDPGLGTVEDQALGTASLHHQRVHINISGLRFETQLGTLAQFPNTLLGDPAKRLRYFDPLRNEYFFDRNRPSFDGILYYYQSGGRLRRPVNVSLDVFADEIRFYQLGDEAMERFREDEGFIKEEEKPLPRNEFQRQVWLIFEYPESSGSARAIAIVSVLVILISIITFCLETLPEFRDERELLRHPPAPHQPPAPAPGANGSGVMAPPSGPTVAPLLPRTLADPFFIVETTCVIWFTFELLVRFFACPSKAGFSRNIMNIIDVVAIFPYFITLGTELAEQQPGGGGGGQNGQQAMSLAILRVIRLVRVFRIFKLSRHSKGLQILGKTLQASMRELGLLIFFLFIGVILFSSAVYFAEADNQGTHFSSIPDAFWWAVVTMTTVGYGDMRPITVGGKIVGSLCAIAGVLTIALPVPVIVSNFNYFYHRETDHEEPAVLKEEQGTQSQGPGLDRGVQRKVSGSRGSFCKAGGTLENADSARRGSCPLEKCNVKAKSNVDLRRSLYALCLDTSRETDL

Point of comparison: `CN1CCCC(C(=O)NCC(C)(C)CN(C2=NS(=O)(=O)c3cc(F)ccc32)c2ccccc2)C1` (centres undefined), IC50 13700 nM. Against it:
- CC(C)(CNC(=O)C1(O)CC1)CN(C1=NS(=O)(=O)c2cc(F)ccc21)c1ccccc1 — 10-fold lower, 1350 nM
- CC(C)(CNC(=O)C1(O)CCCC1)CN(C1=NS(=O)(=O)c2cc(F)ccc21)c1ccccc1 — 19-fold lower, 730 nM
- CC(C)(CNC(=O)C1CCCO1)CN(C1=NS(=O)(=O)c2cc(F)ccc21)c1ccccc1 (centres undefined) — 17-fold lower, 830 nM
- CC(C)(CNC(=O)C1(C(=O)O)CC1)CN(C1=NS(=O)(=O)c2cc(F)ccc21)c1ccccc1 — higher, > 50000 nM
- CC(C)(CNC(=O)C1CCCCN1)CN(C1=NS(=O)(=O)c2cc(F)ccc21)c1ccccc1 (centres undefined) — 2.3-fold lower, 5970 nM
- CC(C)(CNC(=O)C1CC1)CN(C1=NS(=O)(=O)c2cc(F)ccc21)c1ccccc1 — 28-fold lower, 490 nM
- CC(C)(CNC(=O)C1CC1(F)F)CN(C1=NS(=O)(=O)c2cc(F)ccc21)c1ccccc1 (centres undefined) — 43-fold lower, 320 nM
- CC(C)(CNC(=O)C1(O)CCOCC1)CN(C1=NS(=O)(=O)c2cc(F)ccc21)c1ccccc1 — 6.9-fold lower, 1980 nM
- CC(C)(CNC(=O)CC(F)(F)F)CN(C1=NS(=O)(=O)c2cc(F)ccc21)c1ccccc1 — 51-fold lower, 270 nM
- CC(C)(CNC(=O)c1cocn1)CN(C1=NS(=O)(=O)c2cc(F)ccc21)c1ccccc1 — 15-fold lower, 900 nM
- CC(C)(CNC(=O)C1(N)CCCC1)CN(C1=NS(=O)(=O)c2cc(F)ccc21)c1ccccc1 — 5.2-fold lower, 2640 nM
- CC(C)(CNC(=O)C1(C#N)CC1)CN(C1=NS(=O)(=O)c2cc(F)ccc21)c1ccccc1 — 25-fold lower, 540 nM
- CC(C)(CNC(=O)c1cc[nH]c1)CN(C1=NS(=O)(=O)c2cc(F)ccc21)c1ccccc1 — 10-fold lower, 1320 nM
- CC(C)(CNC(=O)C1(C(F)(F)F)CC1)CN(C1=NS(=O)(=O)c2cc(F)ccc21)c1ccccc1 — 57-fold lower, 240 nM
- Cn1cnc(C(=O)NCC(C)(C)CN(C2=NS(=O)(=O)c3cc(F)ccc32)c2ccccc2)c1 — within 1.5-fold, 13900 nM
- CC(C)(CNC(=O)C1(O)CCCCC1)CN(C1=NS(=O)(=O)c2cc(F)ccc21)c1ccccc1 — 30-fold lower, 450 nM
- CC(C)(CNC(=O)c1ncccc1O)CN(C1=NS(=O)(=O)c2cc(F)ccc21)c1ccccc1 — 30-fold lower, 460 nM
- CNC(=O)NCC(C)(C)CN(C1=NS(=O)(=O)c2cc(F)ccc21)c1ccccc1 — 6.2-fold lower, 2220 nM
- CC(C)(CNC(=O)c1cccnc1O)CN(C1=NS(=O)(=O)c2cc(F)ccc21)c1ccccc1 — 1.5-fold lower, 9060 nM
- CC(C)(CNC(=O)C(C)(O)C(F)(F)F)CN(C1=NS(=O)(=O)c2cc(F)ccc21)c1ccccc1 (centres undefined) — 29-fold lower, 480 nM
- CC(C)(CNC(=O)c1ccco1)CN(C1=NS(=O)(=O)c2cc(F)ccc21)c1ccccc1 — 33-fold lower, 410 nM
- Cn1ccnc1C(=O)NCC(C)(C)CN(C1=NS(=O)(=O)c2cc(F)ccc21)c1ccccc1 — 26-fold lower, 520 nM
- O=c1ccc2c(OCCCCOc3ccccc3)c3ccoc3cc2o1 — 4-fold lower, 3450 nM
- CN1CCCC1C(=O)NCC(C)(C)CN(C1=NS(=O)(=O)c2cc(F)ccc21)c1ccccc1 (centres undefined) — 9.9-fold lower, 1390 nM
- CC(C)(CNC(=O)C1CCCNC1)CN(C1=NS(=O)(=O)c2cc(F)ccc21)c1ccccc1 (centres undefined) — higher, > 50000 nM
- CC(C)(CNC(=O)C1(O)CCC(F)(F)CC1)CN(C1=NS(=O)(=O)c2cc(F)ccc21)c1ccccc1 — 22-fold lower, 630 nM

Molecular target: Potassium voltage-gated channel subfamily A member 3 (Homo sapiens, UniProt P22001)
Assay: Inhibition of human Kv1.3 ion channel expressed in CGE22 cells
Type: cell-based
Conditions: not given

Chain of Potassium voltage-gated channel subfamily A member 3 (P22001 whole entry): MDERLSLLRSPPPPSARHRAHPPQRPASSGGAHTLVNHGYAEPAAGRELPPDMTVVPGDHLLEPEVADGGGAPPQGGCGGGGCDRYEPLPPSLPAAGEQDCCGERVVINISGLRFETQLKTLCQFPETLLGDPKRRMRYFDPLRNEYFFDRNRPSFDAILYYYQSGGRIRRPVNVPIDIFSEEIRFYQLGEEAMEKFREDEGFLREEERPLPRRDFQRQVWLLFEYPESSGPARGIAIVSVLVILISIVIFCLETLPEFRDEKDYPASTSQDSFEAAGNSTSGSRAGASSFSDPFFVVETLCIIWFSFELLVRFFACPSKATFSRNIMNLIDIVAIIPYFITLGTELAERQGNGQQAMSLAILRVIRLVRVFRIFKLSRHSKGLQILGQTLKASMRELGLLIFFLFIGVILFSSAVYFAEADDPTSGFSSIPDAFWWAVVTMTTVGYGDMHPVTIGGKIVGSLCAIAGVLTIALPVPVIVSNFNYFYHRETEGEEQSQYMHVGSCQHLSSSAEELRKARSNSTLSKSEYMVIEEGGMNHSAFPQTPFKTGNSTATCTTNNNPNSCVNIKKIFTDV

Point of comparison: `CC(C)(CNC(=O)C1(C#N)CC1)CN(C1=NS(=O)(=O)c2cc(F)ccc21)c1ccccc1`, IC50 350 nM. Against it:
- CC(C)(CNC(=O)C1(O)CC1)CN(C1=NS(=O)(=O)c2cc(F)ccc21)c1ccccc1 — 2.3-fold higher, 820 nM
- CC(C)(CNC(=O)C1(O)CCCC1)CN(C1=NS(=O)(=O)c2cc(F)ccc21)c1ccccc1 — within 1.5-fold, 470 nM
- CC(C)(CNC(=O)C1CCCO1)CN(C1=NS(=O)(=O)c2cc(F)ccc21)c1ccccc1 (centres undefined) — within 1.5-fold, 360 nM
- CC(C)(CNC(=O)C1(C(=O)O)CC1)CN(C1=NS(=O)(=O)c2cc(F)ccc21)c1ccccc1 — higher, > 50000 nM
- CC(C)(CNC(=O)C1CCCCN1)CN(C1=NS(=O)(=O)c2cc(F)ccc21)c1ccccc1 (centres undefined) — 17-fold higher, 5900 nM
- CC(C)(CNC(=O)C1CC1)CN(C1=NS(=O)(=O)c2cc(F)ccc21)c1ccccc1 — within 1.5-fold, 280 nM
- CC(C)(CNC(=O)C1CC1(F)F)CN(C1=NS(=O)(=O)c2cc(F)ccc21)c1ccccc1 (centres undefined) — 2.5-fold lower, 140 nM
- CC(C)(CNC(=O)C1(O)CCOCC1)CN(C1=NS(=O)(=O)c2cc(F)ccc21)c1ccccc1 — 3.1-fold higher, 1070 nM
- CC(C)(CNC(=O)CC(F)(F)F)CN(C1=NS(=O)(=O)c2cc(F)ccc21)c1ccccc1 — 2.3-fold lower, 150 nM
- CC(C)(CNC(=O)c1cocn1)CN(C1=NS(=O)(=O)c2cc(F)ccc21)c1ccccc1 — 2.1-fold higher, 750 nM
- CC(C)(CNC(=O)C1(N)CCCC1)CN(C1=NS(=O)(=O)c2cc(F)ccc21)c1ccccc1 — 4.3-fold higher, 1510 nM
- CN1CCCC(C(=O)NCC(C)(C)CN(C2=NS(=O)(=O)c3cc(F)ccc32)c2ccccc2)C1 (centres undefined) — 34-fold higher, 12000 nM
- CC(C)(CNC(=O)c1cc[nH]c1)CN(C1=NS(=O)(=O)c2cc(F)ccc21)c1ccccc1 — 3.3-fold higher, 1150 nM
- CC(C)(CNC(=O)C1(C(F)(F)F)CC1)CN(C1=NS(=O)(=O)c2cc(F)ccc21)c1ccccc1 — 4.4-fold lower, 80 nM
- Cn1cnc(C(=O)NCC(C)(C)CN(C2=NS(=O)(=O)c3cc(F)ccc32)c2ccccc2)c1 — 37-fold higher, 13100 nM
- CC(C)(CNC(=O)C1(O)CCCCC1)CN(C1=NS(=O)(=O)c2cc(F)ccc21)c1ccccc1 — the same, 350 nM
- CC(C)(CNC(=O)c1ncccc1O)CN(C1=NS(=O)(=O)c2cc(F)ccc21)c1ccccc1 — within 1.5-fold, 320 nM
- CNC(=O)NCC(C)(C)CN(C1=NS(=O)(=O)c2cc(F)ccc21)c1ccccc1 — 8.8-fold higher, 3080 nM
- CC(C)(CNC(=O)c1cccnc1O)CN(C1=NS(=O)(=O)c2cc(F)ccc21)c1ccccc1 — 29-fold higher, 10100 nM
- CC(C)(CNC(=O)C(C)(O)C(F)(F)F)CN(C1=NS(=O)(=O)c2cc(F)ccc21)c1ccccc1 (centres undefined) — within 1.5-fold, 250 nM
- CC(C)(CNC(=O)c1ccco1)CN(C1=NS(=O)(=O)c2cc(F)ccc21)c1ccccc1 — 1.8-fold lower, 200 nM
- Cn1ccnc1C(=O)NCC(C)(C)CN(C1=NS(=O)(=O)c2cc(F)ccc21)c1ccccc1 — 1.6-fold higher, 550 nM
- CN1CCCC1C(=O)NCC(C)(C)CN(C1=NS(=O)(=O)c2cc(F)ccc21)c1ccccc1 (centres undefined) — 7.3-fold higher, 2560 nM
- CC(C)(CNC(=O)C1CCCNC1)CN(C1=NS(=O)(=O)c2cc(F)ccc21)c1ccccc1 (centres undefined) — higher, > 50000 nM
- CC(C)(CNC(=O)C1(O)CCC(F)(F)CC1)CN(C1=NS(=O)(=O)c2cc(F)ccc21)c1ccccc1 — within 1.5-fold, 390 nM

System: not listed separately
Assay: Aqueous solubility of compound by chemiluminescent nitrogen detection analysis
Type: physicochemical
Conditions: not given

Point of comparison: `CC(C)(CNC(=O)C1(C#N)CC1)CN(C1=NS(=O)(=O)c2cc(F)ccc21)c1ccccc1`, solubility 304 µM (≈ 138 µg/mL). Against it:
- CC(C)(CNC(=O)C(C)(O)C(F)(F)F)CN(C1=NS(=O)(=O)c2cc(F)ccc21)c1ccccc1 (centres undefined) — 5.8-fold lower, 52 µM (≈ 26.1 µg/mL)

System: Rattus norvegicus
Assay: Dose normalised AUC in rat at 10 mg/kg, po
Type: ADME, organism-based
Design: dose 10 mg/kg, route oral
Conditions: in vivo

Point of comparison: `CC(C)(CNC(=O)C1(C#N)CC1)CN(C1=NS(=O)(=O)c2cc(F)ccc21)c1ccccc1`, AUC 630 ng·kg·h/mg/mL. Against it:
- CC(C)(CNC(=O)C(C)(O)C(F)(F)F)CN(C1=NS(=O)(=O)c2cc(F)ccc21)c1ccccc1 (centres undefined) — 2.6-fold higher, 1630 ng·kg·h/mg/mL

System: not listed separately
Assay: Cmax in rat at 10 mg/kg, po
Type: ADME, organism-based
Design: dose 10 mg/kg, route oral
Conditions: in vivo

Point of comparison: `CC(C)(CNC(=O)C1(C#N)CC1)CN(C1=NS(=O)(=O)c2cc(F)ccc21)c1ccccc1`, Cmax 900 ng/mL. Against it:
- CC(C)(CNC(=O)C(C)(O)C(F)(F)F)CN(C1=NS(=O)(=O)c2cc(F)ccc21)c1ccccc1 (centres undefined) — 2.3-fold higher, 2100 ng/mL
